Earlier results, collected in patent publication US20240408053A1, “ENTERITIS-SUPPRESSING COMPOSITION” (KOBE GAKUIN EDUCATIONAL FOUNDATION, priority 2021, published 2024).

Conditions: blood metabolites after oral sesaminol in rats, for a short time (NPL 11); cited from earlier work

**Q.** For 5″-methylated sesamin-6-catechol, which “antioxidant activity relative to that of sesaminol” value is on record?
**A.** approximately 1.6 times

**Q.** For sesaminol-6-catechol, which “antioxidant activity relative to that of sesaminol” value is on record?
**A.** approximately 1.6 times
